From PubChem BioAssay AID248 (DTP/NCI, 2004)
Toxic doses and inconclusive results are not listed. Square brackets hold non-standard residues; d marks the D form. Peptide text beside a SMILES is read from it. ξ: configuration not given here. ξI = CCC(C)C(N)C(=O)O

Tested on: L1210 leukemia ip in BDF1 mice, survival T/C
Assay: NCI In Vivo Anticancer Drug Screen. Data for tumor model L1210 Leukemia (intraperitoneal) in B6D2F1 (BDF1) mice
Conditions: endpoint: mean survival time, higher = longer survival
Procedure, shortened: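 Mice bearing the transplanted tumor received compound or vehicle. Survival of the treated group was divided by that of the vehicle-treated control group to give the ratio.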

[1] = dose: 37.5 mg/kg/injection, schedule: Q01DX Z (ip), vehicle: carboxymethylcellulose (CMC)
[2] = dose: 50.0 mg/kg/injection, schedule: Q01DX001 (ip), vehicle: carboxymethylcellulose (CMC)
[3] = dose: 100.0 mg/kg/injection, schedule: Q01DX009 (ip), vehicle: Klucel (hydroxypropylcellulose) (HPC)
[4] = dose: 200.0 mg/kg/injection, schedule: Q01DX009 (ip), vehicle: Klucel (hydroxypropylcellulose) (HPC)
[5] = dose: 100.0 mg/kg/injection, schedule: Q04DX003 (ip), vehicle: Klucel (hydroxypropylcellulose) (HPC)
[6] = dose: 200.0 mg/kg/injection, schedule: Q04DX003 (ip), vehicle: Klucel (hydroxypropylcellulose) (HPC)
[7] = dose: 400.0 mg/kg/injection, schedule: Q01DX009 (ip), vehicle: Klucel (hydroxypropylcellulose) (HPC)
[8] = dose: 400.0 mg/kg/injection, schedule: Q04DX003 (ip), vehicle: Klucel (hydroxypropylcellulose) (HPC)
[9] = dose: 50.0 mg/kg/injection, schedule: Q01DX001 (ip), vehicle: saline
[10] = dose: 100.0 mg/kg/injection, schedule: Q01DX001 (ip), vehicle: saline
[11] = dose: 200.0 mg/kg/injection, schedule: Q01DX001 (ip), vehicle: saline
[12] = dose: 100.0 mg/kg/injection, schedule: Q01DX009 (ip), vehicle: saline
[13] = dose: 200.0 mg/kg/injection, schedule: Q01DX009 (ip), vehicle: saline
[14] = dose: 400.0 mg/kg/injection, schedule: Q01DX009 (ip), vehicle: saline
[15] = dose: 100.0 mg/kg/injection, schedule: Q01DX001 (ip), vehicle: carboxymethylcellulose (CMC)
[16] = dose: 200.0 mg/kg/injection, schedule: Q01DX001 (ip), vehicle: carboxymethylcellulose (CMC)
[17] = dose: 400.0 mg/kg/injection, schedule: Q01DX001 (ip), vehicle: carboxymethylcellulose (CMC)
[18] = dose: 100.0 mg/kg/injection, schedule: Q04DX002 (ip), vehicle: saline with Tween-80
[19] = dose: 200.0 mg/kg/injection, schedule: Q04DX002 (ip), vehicle: saline with Tween-80
[20] = dose: 400.0 mg/kg/injection, schedule: Q04DX002 (ip), vehicle: saline with Tween-80
[21] = dose: 100.0 mg/kg/injection, schedule: Q04DX003 (ip), vehicle: saline
[22] = dose: 200.0 mg/kg/injection, schedule: Q04DX003 (ip), vehicle: saline
[23] = dose: 400.0 mg/kg/injection, schedule: Q01DX001 (ip), vehicle: saline

## O=NN(CCCl)C(=O)Nc1ccc(C(F)(F)F)cc1
dose: 4.6 mg/kg/injection, schedule: Q01DX Z (ip), vehicle: carboxymethylcellulose (CMC)
  T/C: 154 % of control
dose: 9.37 mg/kg/injection, schedule: Q01DX Z (ip), vehicle: carboxymethylcellulose (CMC)
  T/C: 166 % of control
dose: 18.75 mg/kg/injection, schedule: Q01DX Z (ip), vehicle: carboxymethylcellulose (CMC)
  T/C: 190 % of control
[1]
  T/C: 108 % of control
[2]
  T/C: 151 % of control
dose: 75.0 mg/kg/injection, schedule: Q01DX001 (ip), vehicle: carboxymethylcellulose (CMC)
  T/C: 167 % of control

## O=c1[nH]c2cc(Cl)c(Cl)cc2o1
dose: 19.0 mg/kg/injection, schedule: Q01DX Z (ip), vehicle: carboxymethylcellulose (CMC)
  T/C: 95 % of control
[1]
  T/C: 95 % of control
dose: 75.0 mg/kg/injection, schedule: Q01DX Z (ip), vehicle: carboxymethylcellulose (CMC)
  T/C: 96 % of control
[3]
  T/C: 93 % of control
dose: 100.0 mg/kg/injection, schedule: Q04DX003 (ip), vehicle: other
  T/C: 102 % of control
[4]
  T/C: 93 % of control
dose: 200.0 mg/kg/injection, schedule: Q04DX003 (ip), vehicle: other
  T/C: 95 % of control
dose: 400.0 mg/kg/injection, schedule: Q04DX003 (ip), vehicle: other
  T/C: 97 % of control

## ClC1CC2CCC1(Cl)C2 (stereo not given)
[3]
  T/C: 97 % of control
[5]
  T/C: 96 % of control
[4]
  T/C: 92 % of control
[6]
  T/C: 100 % of control
[7]
  T/C: 93 % of control
[8]
  T/C: 96 % of control

## O=C(NCCBr)Nc1ccc2c(c1)OCO2
[3]
  T/C: 94 % of control
[5]
  T/C: 111 % of control
[4]
  T/C: 102 % of control
[6]
  T/C: 101 % of control
[7]
  T/C: 96 % of control
[8]
  T/C: 108 % of control

## CCCCCCCCCCCCCCCCCCOC(=O)Cc1ccc(N(CCCl)CCCl)cc1
[3]
  T/C: 105 % of control
[5]
  T/C: 100 % of control
[4]
  T/C: 110 % of control
[6]
  T/C: 109 % of control
[7]
  T/C: 115 % of control
[8]
  T/C: 105 % of control

## Cn1cc(C2Cc3ccccc3NC3=C2C(=O)CC(C)(C)C3)c2ccccc21 (stereo not given)
dose: 100.0 mg/kg/injection, schedule: Q01DX001 (ip), vehicle: other
  T/C: 103 % of control
dose: 200.0 mg/kg/injection, schedule: Q01DX001 (ip), vehicle: other
  T/C: 92 % of control
dose: 400.0 mg/kg/injection, schedule: Q01DX001 (ip), vehicle: other
  T/C: 86 % of control

## O=C(CI)c1ccc[nH]1
[9]
  T/C: 100 % of control
[10]
  T/C: 100 % of control
[11]
  T/C: 103 % of control

## CC[N+](CC)(CC)CCNC(C)=O
[12]
  T/C: 111 % of control
[13]
  T/C: 100 % of control
[14]
  T/C: 105 % of control

## CCC(=O)OCc1ccc(Cl)cc1
[3]
  T/C: 97 % of control
[5]
  T/C: 101 % of control
[4]
  T/C: 95 % of control
[6]
  T/C: 96 % of control
[7]
  T/C: 94 % of control
[8]
  T/C: 95 % of control

## CCOC(=O)c1cccc2cccc(C(=O)OCC)c12
[2]
  T/C: 97 % of control
[15]
  T/C: 101 % of control
[16]
  T/C: 101 % of control
[17]
  T/C: 97 % of control

## O=C(COc1cc(Cl)c(Cl)cc1Cl)Nc1ccc([N+](=O)[O-])cc1Cl
[18]
  T/C: 102 % of control
[19]
  T/C: 109 % of control
[20]
  T/C: 98 % of control

## O=C1C=CC(=O)N1c1ccnc(N2C(=O)C=CC2=O)c1
[15]
  T/C: 86 % of control
[16]
  T/C: 97 % of control
[17]
  T/C: 105 % of control

## CS(=O)(=O)OCCCCCCCCCOS(C)(=O)=O
dose: 25.0 mg/kg/injection, schedule: Q01DX009 (ip), vehicle: Klucel (hydroxypropylcellulose) (HPC)
  T/C: 96 % of control
dose: 50.0 mg/kg/injection, schedule: Q01DX009 (ip), vehicle: Klucel (hydroxypropylcellulose) (HPC)
  T/C: 103 % of control
dose: 75.0 mg/kg/injection, schedule: Q01DX001 (ip), vehicle: other
  T/C: 95 % of control
[3]
  T/C: 105 % of control
dose: 150.0 mg/kg/injection, schedule: Q01DX001 (ip), vehicle: other
  T/C: 108 % of control

## COc1cc2c(cc1OC)-c1ncnc(-c3ccccc3)c1C2
[5]
  T/C: 95 % of control
[6]
  T/C: 94 % of control
[8]
  T/C: 101 % of control

## CCC(C)C(NC(=O)CN)C(=O)O (stereo not given) (H-Gly-[ξI]-OH)
[18]
  T/C: 97 % of control
[21]
  T/C: 98 % of control
[19]
  T/C: 102 % of control
[22]
  T/C: 98 % of control
[20]
  T/C: 97 % of control
dose: 400.0 mg/kg/injection, schedule: Q04DX003 (ip), vehicle: saline
  T/C: 91 % of control

## C(/C=C/C=C/Nc1ccc(N=Nc2ccccc2)cc1)=Nc1ccc(N=Nc2ccccc2)cc1
dose: 100.0 mg/kg/injection, schedule: Q01DX009 (ip), vehicle: saline sonified
  T/C: 94 % of control
dose: 100.0 mg/kg/injection, schedule: Q04DX003 (ip), vehicle: saline sonified
  T/C: 94 % of control
dose: 200.0 mg/kg/injection, schedule: Q01DX009 (ip), vehicle: saline sonified
  T/C: 94 % of control
dose: 200.0 mg/kg/injection, schedule: Q04DX003 (ip), vehicle: saline sonified
  T/C: 93 % of control
dose: 400.0 mg/kg/injection, schedule: Q04DX003 (ip), vehicle: saline sonified
  T/C: 91 % of control

## CCOC(=O)C(C)CC(=O)c1ccccc1 (stereo not given)
dose: 50.0 mg/kg/injection, schedule: Q01DX009 (ip), vehicle: saline with Tween-80
  T/C: 106 % of control
dose: 100.0 mg/kg/injection, schedule: Q01DX009 (ip), vehicle: saline with Tween-80
  T/C: 107 % of control
[18]
  T/C: 95 % of control
[19]
  T/C: 95 % of control

## CC(C)(O)C(=O)NCNC(=O)C(C)(C)O
[3]
  T/C: 102 % of control
[5]
  T/C: 103 % of control
[4]
  T/C: 97 % of control
[6]
  T/C: 103 % of control
[7]
  T/C: 97 % of control
[8]
  T/C: 106 % of control

## CCOCCOC(=O)c1ccc(C(N)=NC)cc1
[10]
  T/C: 91 % of control
[11]
  T/C: 94 % of control
[23]
  T/C: 94 % of control

## C1CC2OC2C1 (stereo not given)
[12]
  T/C: 104 % of control
dose: 100.0 mg/kg/injection, schedule: Q04DX003 (ip), vehicle: saline with Tween-80
  T/C: 97 % of control
[13]
  T/C: 108 % of control
dose: 200.0 mg/kg/injection, schedule: Q04DX003 (ip), vehicle: saline with Tween-80
  T/C: 100 % of control
[14]
  T/C: 105 % of control
dose: 400.0 mg/kg/injection, schedule: Q04DX003 (ip), vehicle: saline with Tween-80
  T/C: 90 % of control

## COc1ccccc1CN1CCCN(Cc2ccccc2OC)C1c1cc(Cl)cc(Cl)c1O
[9]
  T/C: 98 % of control
[10]
  T/C: 111 % of control
[11]
  T/C: 104 % of control
[23]
  T/C: 98 % of control

## CCn1c(C)nc2cc(Cl)c(Br)cc21
[21]
  T/C: 107 % of control
[22]
  T/C: 110 % of control

## OCCNc1nn2ccnc2c2ccccc12
[18]
  T/C: 92 % of control
[19]
  T/C: 92 % of control
[20]
  T/C: 92 % of control

## Cc1ccc(-n2c(=O)[nH]c3c(c2=O)C(c2ccc(Cl)cc2)C(C)(C)O3)cc1 (stereo not given)
dose: 12.5 mg/kg/injection, schedule: Q01DX001 (ip), vehicle: saline
  T/C: 97 % of control
dose: 12.5 mg/kg/injection, schedule: Q04DX003 (ip), vehicle: saline
  T/C: 107 % of control
dose: 25.0 mg/kg/injection, schedule: Q04DX003 (ip), vehicle: saline
  T/C: 101 % of control
[9]
  T/C: 96 % of control
dose: 50.0 mg/kg/injection, schedule: Q04DX003 (ip), vehicle: saline
  T/C: 90 % of control
dose: 75.0 mg/kg/injection, schedule: Q04DX003 (ip), vehicle: saline
  T/C: 97 % of control
dose: 113.0 mg/kg/injection, schedule: Q04DX003 (ip), vehicle: saline
  T/C: 94 % of control
dose: 169.0 mg/kg/injection, schedule: Q04DX003 (ip), vehicle: saline
  T/C: 95 % of control

## Cc1ccc(Br)c(Br)c1
dose: 50.0 mg/kg/injection, schedule: Q01DX009 (ip), vehicle: saline
  T/C: 97 % of control
[12]
  T/C: 87 % of control
[13]
  T/C: 111 % of control
